Source: article PMC7024169, “Synthesis and Antimalarial Activity of 1,4-Disubstituted Piperidine Derivatives” (Molecules, 2020)

Assays:
[1] = tested on: Plasmodium falciparum 3D7 Strain; test: Antiplasmodial SYBR Green I assay, chloroquine-sensitive 3D7 strain; format: cell-based
[2] = tested on: Plasmodium falciparum W2 Strain; test: microbe, parasite or virus in culture; format: cell-based
HUVEC cells = settings: human

| Compound | IC50 ([1]; Plasmodium falciparum, chloroquine-sensitive 3D7, 48 h incubation, SYBR Green I, read-out: IC50 ± SD, Plasmodium falciparum 3D7 Strain) [nM] | IC50 ([2]; Plasmodium falciparum, W2, 48 h, read-out: IC50 ± SD, Plasmodium falciparum W2 Strain) [nM] | Selectivity Index (3D7) =CC50/IC50 ([1]; CC50 HUVEC / IC50 3D7) | Selectivity Index (W2) =CC50/IC50 ([2]; CC50 HUVEC / IC50 W2) | CC50 ± SD, HUVEC Cells (HUVEC cells) [nM] |
| --- | --- | --- | --- | --- | --- |
| CCN(CC)CCCC(C)Nc1ccnc2cc(Cl)ccc12 (centres unmarked) [CQ, chloroquine, reference compound] | 22.4 ± 3.24 | 134 ± 32.3 | – | – | – |
| O=C(COc1ccccc1)N1CCC(N(C(=O)COc2ccccc2)c2ccccc2)CC1 [Compound 10] | – | – | >8.9 | >5.3 | >100 |
